Values of other authors as cited in US8716506B2, “Xylitol esters and ethers applied as alternative emulsifiers, solvents, co-emulsifiers and preservative systems for pharmaceutical and cosmetic products” (priority 2008, dated 2014).

Legend:
Haemophilus influenzae = conditions: concentration of 5%
S. pneumoniae = conditions: concentration of 5%
Streptococcus pneumoniae = conditions: concentration of 5%

## CC1(C)C(=O)N(CO)C(=O)N1CO [DMDM hydantoin, 1,3-Dimethylo1-5,5-dimethyl hydantoin]
De Groot and collaborators
  volunteers with hypersensitivity in contact test: 57%

## C=O [formaldehyde, Formaldehyde (methanal)]
Clinical tests, even in concentrations of 30 ppm of free formaldehyde
  volunteers with contact hypersensitizing: 1-9%

## OC[C@@H](O)[C@H](O)[C@@H](O)CO [xylitol]
Haemophilus influenzae
  adherence levels in epithelial nasopharyngeal cells: reduced the adherence levels
S. pneumoniae
  adherence levels in epithelial nasopharyngeal cells: reduced the adherence levels
Streptococcus pneumoniae
  growth inhibition: inhibited the growth
